Laboratory results reported in the NIST ThermoML archive (doi:10.1021/je050156k).

Details: Liquid; for mass density: 101.33 kPa; for vapor or sublimation pressure: Closed cell (Static) method

C1CCC2OC2C1 (stereo unspecified) [7-oxabicyclo[4.1.0]heptane]
Details	mass density [kg/m3]	vapor or sublimation pressure [kPa]
277.7 K	988.4	–
289 K	978	–
293.2 K	972.2	–
303.2 K	963.8	–
313.2 K	955	–
323.2 K	944.8	–
333.2 K	935.4	–
343.2 K	925.5	–
353.2 K	915.7	–
360.91 K	–	25.5
361.13 K	–	25.8
363.2 K	903.9	–
382.47 K	–	52.4
383.09 K	–	53.6
404.87 K	–	101.3
405.48 K	–	103.8
423.87 K	–	167
443.95 K	–	268
453.99 K	–	333
463.99 K	–	409
474.03 K	–	497
